In EP4653440A1, “HETEROCYCLIC COMPOUND, AND PHARMACEUTICAL COMPOSITION AND USE THEREOF” (Prime Gene Therapeutics Co., Ltd., priority 2023, dated 2024):
pIC50: −log10 of the molar value.

Tests used:
[1] = biological target: ROCK1 (Homo sapiens, UniProt Q13464); experiment: ROCK1 kinase enzymatic activity (HTRF, STK2 substrate); type: biochemical; conditions: ROCK1 kinase reaction 20 minutes at room temperature
Excerpt: (§1) The kinase activity data was expressed by comparing the kinase activity of the test compound and that of the blank group (containing only DMSO), and the IC50 value was obtained by curve fitting using Prism software (GraphPad7.0).

[2] = biological target: ROCK2 (Homo sapiens, UniProt O75116); experiment: ROCK2 kinase enzymatic activity (HTRF, STK2 substrate); type: biochemical; conditions: ROCK2 kinase reaction 30 minutes at room temperature
ROCK2, sequence (O75116 whole entry): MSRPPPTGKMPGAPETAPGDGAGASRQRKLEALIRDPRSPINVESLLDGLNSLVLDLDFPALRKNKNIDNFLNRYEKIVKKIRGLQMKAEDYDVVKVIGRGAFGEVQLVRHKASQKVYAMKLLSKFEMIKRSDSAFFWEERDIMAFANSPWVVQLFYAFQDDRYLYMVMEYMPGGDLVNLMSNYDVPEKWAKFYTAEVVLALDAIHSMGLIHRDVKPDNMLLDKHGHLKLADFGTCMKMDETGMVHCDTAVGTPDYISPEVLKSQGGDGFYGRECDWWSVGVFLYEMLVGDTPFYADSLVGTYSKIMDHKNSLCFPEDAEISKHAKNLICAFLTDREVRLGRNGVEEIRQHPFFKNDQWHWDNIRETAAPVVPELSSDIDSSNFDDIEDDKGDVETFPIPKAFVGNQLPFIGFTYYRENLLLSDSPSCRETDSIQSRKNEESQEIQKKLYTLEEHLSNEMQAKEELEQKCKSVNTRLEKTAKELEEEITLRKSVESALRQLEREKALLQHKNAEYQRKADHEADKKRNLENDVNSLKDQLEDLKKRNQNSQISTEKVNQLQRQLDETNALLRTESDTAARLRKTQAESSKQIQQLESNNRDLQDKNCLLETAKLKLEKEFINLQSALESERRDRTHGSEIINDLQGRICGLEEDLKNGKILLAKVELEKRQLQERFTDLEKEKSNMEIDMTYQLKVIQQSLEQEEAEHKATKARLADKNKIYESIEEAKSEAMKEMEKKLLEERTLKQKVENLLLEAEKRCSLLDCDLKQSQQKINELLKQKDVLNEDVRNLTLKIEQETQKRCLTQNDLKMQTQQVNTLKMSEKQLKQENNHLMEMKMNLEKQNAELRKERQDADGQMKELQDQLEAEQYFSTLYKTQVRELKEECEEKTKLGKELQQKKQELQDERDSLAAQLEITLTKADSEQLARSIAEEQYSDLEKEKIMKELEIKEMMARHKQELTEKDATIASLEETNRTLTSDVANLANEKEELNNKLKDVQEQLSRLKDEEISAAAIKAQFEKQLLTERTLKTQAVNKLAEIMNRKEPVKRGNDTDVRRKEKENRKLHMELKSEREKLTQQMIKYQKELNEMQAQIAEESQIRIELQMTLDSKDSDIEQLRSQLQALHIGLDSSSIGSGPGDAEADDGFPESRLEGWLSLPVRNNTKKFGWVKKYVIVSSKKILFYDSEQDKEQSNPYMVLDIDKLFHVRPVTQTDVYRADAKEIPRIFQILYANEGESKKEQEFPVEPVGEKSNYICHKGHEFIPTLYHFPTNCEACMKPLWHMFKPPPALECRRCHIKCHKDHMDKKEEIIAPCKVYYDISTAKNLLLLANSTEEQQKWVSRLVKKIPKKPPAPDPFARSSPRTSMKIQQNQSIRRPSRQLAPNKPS
Excerpt: as §1

[3] = test system: phosphorylation of myosin light chain T18/S19; experiment: In Cell Western for phosphorylation of myosin light chain in A7r5 cells; type: cell-based, rat; conditions: Rattus norvegicus, A7R5, 1 h
Excerpt: The rat smooth muscle cell line A7r5 was used, and the A7r5 cell culture conditions were DMEM containing 10% FBS. Phspho-MLC-T18/S19 specific antibody and a second detection antibody were used to detect the phosphorylation level of myosin light chain by In Cell Western. Cells treated with positive compounds were used as positive controls, while the group without compounds but with compound solvents was used as negative controls. DRAQ5 stained cell nuclei were used as internal references. GraphPad Prism 7.0 software was used, and fitting was carried out by using a non-linear regression curve with varying slopes to determine the absolute IC50 value.
On the first day, A7r5 cells were resuspended in serum-free medium and seeded into 384 wells of PDL coated transparent black plates at a density of 5000 cells per well. Serum starvation culture was performed for 4 hours, and the cells were incubated with the compound in serum-free medium for 1 hour. 50 µL of 8% PFA (polyformaldehyde) was added to each well and fixed at room temperature for 1 hour. The liquid in the wells was discard and 90 µL of ice methanol was added to each well to permeabilize the cells at 4 °C for 1 hour. Then, PBST (0.1% Tween20-PBS) was added using an automatic separator to wash three times. After patting the plate for drying, 50 µL blocking solution was added to each well for sealing at room temperature for 1 hour. The phspho-MLC-T18/S19 specific antibody was diluted with the blocking solution at a ratio of 1:200. After adding 20 µL to each well, incubation was carried out overnight at 4 °C with a sealed film.
On the second day, the liquid in the wells was discarded and PBST was added using an automatic separator to wash the plate 5 times. After patting the plate for drying, the second detection antibody was diluted with blocking solution at a ratio of 1:800 and DRAQ5 at a ratio of 1:1000. After adding 20 µL to each well, incubation was carried out at room temperature for 1 hour. Then, the liquid in the wells was discarded and PBST was added using an automatic separator to wash the plate 3 times, followed by adding ddH2O to wash the plate 3 times. After patting the plate for drying, it was scaned using a LICOR Odyssey near-infrared imaging scanner.

[4] = test system: Norwegian rat glaucoma model induced by hypertonic saline solution; experiment: Norwegian rat glaucoma model induced by hypertonic saline solution (intraocular pressure); type: in vivo; conditions: 0.02% eye drops once a day, one drop; compared with model control group; 0 to 24 hours after administration
Excerpt: Experimental method: after animal anesthesia, the lateral canthus of the right eye was incised, and a polypropylene ring was placed at the equator of the eyeball, with the notch of the ring located in the upper quadrant of the eyeball, leaving only one scleral surface vein above. […] After injection, the polypropylene ring was removed and antibiotic eye ointment was applied to the operated eye.
After modeling, a rebound tonometer was used continuously to measure the intraocular pressure of both eyes, once every 3 days, and the average of 6 measurements was took each time and recorded; After the intraocular pressure had been stabilized (about 20 days later), the subjects were randomly divided into three groups based on the most recent measurement of intraocular pressure and body weight: sham surgery group, model control group, and test drug group (0.02% Example 29) group, with 5 animals in each group. After grouping, eye drops were administered once a day, with one drop per time. During the administration period, dynamic intraocular pressure was measured once a week (detecting the intraocular pressure change curve from 0 to 24 hours after administration) until the end of the experiment.

ROCK1, sequence (Q13464 whole entry): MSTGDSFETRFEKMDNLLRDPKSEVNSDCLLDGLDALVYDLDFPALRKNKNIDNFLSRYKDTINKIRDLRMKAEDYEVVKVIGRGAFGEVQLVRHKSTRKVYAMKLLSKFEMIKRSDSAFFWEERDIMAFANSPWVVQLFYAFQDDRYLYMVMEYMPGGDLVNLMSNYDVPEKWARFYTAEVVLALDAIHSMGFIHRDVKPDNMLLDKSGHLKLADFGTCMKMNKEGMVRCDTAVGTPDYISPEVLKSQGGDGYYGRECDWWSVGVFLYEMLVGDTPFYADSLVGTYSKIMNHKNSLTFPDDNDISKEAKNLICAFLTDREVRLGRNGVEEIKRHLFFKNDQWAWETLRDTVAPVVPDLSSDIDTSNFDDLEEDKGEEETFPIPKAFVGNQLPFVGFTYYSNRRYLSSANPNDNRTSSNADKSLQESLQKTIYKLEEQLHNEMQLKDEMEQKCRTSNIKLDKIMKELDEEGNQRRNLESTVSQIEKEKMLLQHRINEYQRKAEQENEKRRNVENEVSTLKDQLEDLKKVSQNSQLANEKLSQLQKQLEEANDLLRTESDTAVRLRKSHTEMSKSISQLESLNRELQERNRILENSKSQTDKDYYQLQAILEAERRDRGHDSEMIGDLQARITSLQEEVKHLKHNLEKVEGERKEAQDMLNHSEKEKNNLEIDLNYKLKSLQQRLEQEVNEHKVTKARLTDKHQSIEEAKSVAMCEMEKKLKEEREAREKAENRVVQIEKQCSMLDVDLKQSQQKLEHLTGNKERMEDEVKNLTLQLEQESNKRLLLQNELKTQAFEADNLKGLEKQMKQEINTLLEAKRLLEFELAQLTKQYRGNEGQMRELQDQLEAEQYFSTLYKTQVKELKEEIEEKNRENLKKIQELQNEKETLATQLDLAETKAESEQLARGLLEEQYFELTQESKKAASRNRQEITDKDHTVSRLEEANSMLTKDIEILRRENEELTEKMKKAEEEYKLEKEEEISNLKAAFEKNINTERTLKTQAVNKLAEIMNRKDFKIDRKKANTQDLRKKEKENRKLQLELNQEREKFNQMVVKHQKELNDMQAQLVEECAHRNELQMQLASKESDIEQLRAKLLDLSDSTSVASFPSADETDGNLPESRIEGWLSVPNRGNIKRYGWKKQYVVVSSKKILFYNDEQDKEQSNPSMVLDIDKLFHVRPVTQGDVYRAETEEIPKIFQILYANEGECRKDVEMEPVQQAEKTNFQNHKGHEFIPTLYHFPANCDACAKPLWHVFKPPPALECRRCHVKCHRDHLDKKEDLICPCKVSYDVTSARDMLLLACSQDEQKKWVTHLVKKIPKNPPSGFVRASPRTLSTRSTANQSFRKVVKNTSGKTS

For N#CC[C@H](C1CCCCC1)n1cc(-c2ncnc3[nH]ccc23)c(N)n1 [Example 29, (R)-3-(3-amino-4-(7H-pyrrolo[2,3-d]pyrimidin-4-yl)-1H-pyrazol-1-yl)-3-cyclohexylpropionitrile], the IC50 [1] was < 5 nM, the IC50 [2] was < 5 nM and the pIC50 [3] was 6.97. For the same compound, the intraocular pressure [4] was “significantly decreased”.
In the case of N#CCC1(n2cc(-c3ncnc4[nH]ccc34)c(N)n2)CCS(=O)(=O)CC1 [Example 1, 2-(4-(3-amino-4-(7H-pyrrolo[2,3-d]pyrimidin-4-yl)-1H-pyrazol-1-yl)-1,1-dioxidotetrahydro-2H-thiopyran-4-yl)acetonitrile], the IC50 [1] was < 2 nM, the IC50 [2] was < 1 nM and the pIC50 [3] was 7.04.
In the case of N#CC[C@@H](C1CC1)n1cc(-c2ncnc3[nH]ccc23)c(N)n1 [Example 26, (S)-3-(3-amino-4-(7H-pyrrolo[2,3-d]pyrimidin-4-yl)-1H-pyrazol-1-yl)-3-cyclopropylpropionitrile], the IC50 [1] was < 5 nM, the IC50 [2] was < 2 nM and the pIC50 [3] was 7.06.
N#CCC(C1CCC1)n1cc(-c2ncnc3[nH]ccc23)c(N)n1 (stereo not shown) [Example 13, 3-(3-amino-4-(7H-pyrrolo[2,3-d]pyrimidin-4-yl)-1H-pyrazol-1-yl)-3-cyclobutylpropionitrile] was tested, and the IC50 [1] was < 5 nM, the IC50 [2] was < 5 nM and the pIC50 [3] was 6.91.
With CC1CC(C(CC#N)n2cc(-c3ncnc4[nH]ccc34)c(N)n2)C1 (stereo not shown) [Example 16, 3-(3-amino-4-(7H-pyrrolo[2,3-d]pyrimidin-4-yl)-1H-pyrazol-1-yl)-3-(3-methylcyclobutyl)propanitrile] the IC50 [1] was < 5 nM, the IC50 [2] was < 5 nM and the pIC50 [3] was 6.55.
